In US11337935B2, “Identification of stabilizers of multimeric proteins” (The Board of Trustees of the Leland Stanford Junior …, priority 2010, dated 2022):

Experiments:
[1] = target: WT TTR (Homo sapiens (Human), UniProt P02766); assay: Acid-mediated fibril formation assay for TTR amyloidogenesis (turbidity); conditions: ligand 7.2 μM, TTR 3.6 μM, pH 4.4, 37° C., 72 h; no inhibitor = 100%
Protocol: The efficacy of each compound to inhibit TTR amyloidogenesis was determined by monitoring the turbidity of TTR aggregation at acidic pH, as described previously. […] The final 1 ml sample mixture was vortexed, then incubated at 37° C. for 72 hours, after which the sample was vortexed and the optical density was measured at 400 nm on a Beckman DU® 640 spectrophotometer. […] The optical density was also corrected for the absorption of all test compounds in the absence of TTR. […] The optical density (400 nm) was measured as described above at 0, 24, 48, 72, 96, and 120 hours. All assays were performed in triplicate and the average values obtained are presented.
TTR was preincubated with small molecules for 30 min at room temperature before amyloidosis was initiated (lowering pH to 4.4, incubation at 37° C.). […] The amyloidogenesis inhibition efficacy of each compound was determined by monitoring the turbidity of TTR (400 nm). The extent of TTR amyloidogenesis was quantitated at a fixed time point (72 h). All amyloid fibril formation data was normalized to TTR amyloidogenesis in the absence of inhibitor, assigned to be 100% fibril formation. […] The aggregation inhibition was monitored over 5 days using the acid-mediated fibril formation assay (compared to 3 days for the fixed time point described above) (FIG. 5B).

[2] = target: T1, TTR (Homo sapiens (Human), UniProt P02766); assay: Determination of IC50 using the FP assay (HTS format); type: binding; conditions: read-out: IC50 (50% decrease in the FP signal); repurchased top 33 hits, 10-point duplicate dose-response
[3] = test system: WT TTR cytotoxicity in human IMR-32 neuroblastoma cells; assay: Inhibition of WT TTR cytotoxicity; conditions: WT TTR and ligand 8 μM each, IMR-32, 24 h
Protocol: (§1) The human cardiac cell line AC16 was maintained in DMEM:F12 (1:1) supplemented with 10% FBS, 1 mM Hepes buffer, 2 mM L-glutamine, 100 units/mL penicillin and 100 μg/mL streptomycin. Two to 4-day-old cultures (˜70% confluent) were used for the experiments.
(§2) Recombinant WT TTR purified in the cold in HBSS (Mediatech, Manassas, Va.) was used as a cytotoxic insult to IMR-32 cells and the amyloidogenic V122I TTR was used as cytotoxic insult to cardiac AC16 cells. Candidate compounds (16 mM in DMSO) were diluted 1:1000 with WT TTR or V122I TTR (16 mM in HBSS, filter sterilized) or with HBSS only. The mixtures were vortexed and incubated for 24 h at 4° C. WT TTR or V122I TTR (16 mM in HBSS) containing the same amount of DMSO than TTR/candidate compound mixtures was prepared in parallel and incubated under the same conditions.
(§3) The neuroblastoma IMR-32 and the cardiac AC16 cells were seeded in black wall, clear bottom, tissue culture treated 96-well plates (Costar) at a density of 6,000 cells/well and 250 cells/well, respectively in Opti-mem supplemented with 5% FBS, 1 mM Hepes buffer, 2 mM L-glutamine, 100 units/mL penicillin and 100 μg/mL streptomycin, 0.05 mg/mL CaCl2 and incubated overnight at 37° C. The medium was then removed and replaced immediately by the TTR/compound or HBSS previously diluted 1:1 in Opti-mem supplemented with 0.8 mg/mL BSA, 2 mM Hepes buffer, 4 mM L-glutamine, 200 units/mL penicillin, 200 μg/mL streptomycin and 0.1 mg/mL CaCl2. The cells were incubated 24 h at 37° C. after which cell viability was measured.
(§4) Cell viability of the cells treated with TTR or TTR/candidate compound was evaluated by a resazurin reduction assay. Briefly, 10 μL/well of resazurin (500 mM, PBS) was added to each well and incubated for 2-3 h at 37° C. Viable cells reduce resazurin to the highly fluorescent resorufin dye, which is quantitated in a multiwell plate reader (Ex/Em 530/590 nm, Tecan Safire2, Austria). Cell viability was calculated as percentage of fluorescence relative to cells treated with vehicle only (100% viability) after subtraction of blank fluorescence (wells without cells). All experimental conditions were performed at least in six replicates. Averages and SEM corresponding to 2 independently performed experiments were calculated.
(§5) The compounds under study were pre-incubated with WT TTR or V122I TTR for 24 h at 4° C. at equimolar concentrations (8 μM) and added to IMR-32 cells or AC16 cells, respectively. Cell viability was measured after 24 h by a resazurin reduction assay. […] The percentage of viable cells was calculated relative to cells treated with vehicle only (cell culture media and DMSO)—which were assigned to be 100% viable.

[4] = test system: V122I TTR cytotoxicity in human AC16 cardiac cells; assay: Inhibition of V122I TTR cytotoxicity; conditions: V122I TTR and ligand 8 μM each, AC16, 24 h
Protocol: as §1, §2, §3, §4, §5

[5] = target: human wild type TTR (Homo sapiens (Human), UniProt P02766); assay: Isothermal titration calorimetry (ITC) of ligands against TTR; type: binding
Protocol: Calorimetric titrations were carried out on a VP-ITC calorimeter (MicroCal, Northhampton, Mass.). […] Prior to each titration, all samples were degassed for 10 minutes. The initial injection of 3.0 μL was followed by 30 injections of 8.0 μL each (25° C.) to the point that TTR was fully saturated with ligand. Integration of the thermogram after subtraction of blanks yielded a binding isotherm that was analyzed with MicroCal Origin 5.0 software.

[6] = target: wild type biotinylated TTR (Homo sapiens (Human), UniProt P02766); assay: Surface plasmon resonance (SPR) assay on immobilized biotinylated TTR; type: binding
Protocol: To an ice-cold solution of TTR (20 μM) in PBS was added EZ-Link Sulfo-NHS-LC-Biotin at a ratio of ˜2:1 (biotin:TTR) (minimal biotinylation) and the solution was incubated at room temperature. After 1 hour, un-reacted biotin was removed by passing the sample over a fast (FPLC) desalting column (Superdex™ 75) equilibrated with PBS.
SPR measurements were performed at 25° C. using a Biacore T100 (GE Healthcare) instrument equilibrated in 1% DMSO in PBS as a running buffer. After pretreatment of the streptavidin-coated chip (Sensor Chop SA, Biacore), ˜4000 RU biotinylated TTR was immobilized on one channel leaving the second flow channel as a blank (streptavidin alone) control. For binding measurements, HTS hits were diluted in running buffer (1% DMSO/PBS) and different dilution series were flowed over the chip at 50 μL/min ([…], 600 s wash). A zero concentration sample was used as a negative control. The kinetic data was fitted to a one-to-one binding model using Biacore T100 evaluation software.

[7] = target: T1, TTR; assay: FP saturation binding experiment; conditions: FITC alone
Protocol: The binding of probe 5 for TTR was evaluated as follows. […] The samples were allowed to equilibrate by agitation for 20 min at room temperature. Fluorescence polarization (excitation λ 485 nm, emission λ 525 nm, Cutoff λ 515 nm) measurements were taken using SpectraMax M5 Microplate Reader (Molecular Devices). […] Nonspecific FP, produced by the free fluorescent probe 5 as well as by binding of 5 to the plate, was equal to 70±10 mP.

Molecule	Prevention of TTR-induced cytotoxicity [3]	Prevention of TTR-induced cytotoxicity [4]	also measured
Cc1ccc(Cl)c(Nc2ccccc2C(=O)O)c1Cl	–	–	% fibril formation [1]: 3.87 ± 0.93%; IC50 [2]: 504 nM
O=[N+]([O-])c1cc(O)c(O)c([N+](=O)[O-])c1 [3,5-dinitrocatechol, 3,5-dinitrocatechol, reference compound]	poor inhibitor	poor inhibitor	–
O=C(O)c1ccccc1Nc1cc(Cl)c(OCCOCCOCCNC(=S)Nc2ccc3c(c2)C(=O)OC32c3ccc(O)cc3Oc3cc(O)ccc32)c(Cl)c1 [Compound 5, 2-(3,5-dichloro-4-(2-(2-(2-(3-(3′,6′-dihydroxy-3-oxo-3H-spiro[isobenzofuran-1,9′-xanthene]-5-yl)thioureido)ethoxy)ethoxy)ethoxy)phenylamino)benzoic acid]	–	–	Decrease in binding affinity to TTR relative to 4 (fold) [5]: ~3 fold
Cc1n[nH]c(C)c1CCCOc1ccccc1F [Compound 7]	completely prevented	completely prevented	–
CN1C(=N)NC(=O)/C1=C/c1cc(Br)c(O)c(Br)c1 [Compound 14]	completely prevented	completely prevented	–
Cc1n[nH]c(C)c1CCc1nc2c3ccccc3[nH]c(=S)n2n1 [Compound 15]	completely prevented	completely prevented	–
O=C(O)Cc1ccccc1Nc1c(Cl)cccc1Cl [Diclofenac]	–	–	lower target residence time than 7 (fold) [6]: ~40 ×
O=C(O)c1cccnc1Nc1cccc(C(F)(F)F)c1 [Niflumic acid, niflumic acid, reference compound]	–	relatively poor inhibitor	–
O=C(c1cc(O)c(O)c([N+](=O)[O-])c1)c1ccccc1F [Ro 41-0960, reference compound]	completely prevented	completely prevented	–
O=C(O)Cc1ccccc1Nc1c(Cl)cccc1Cl [drawing 78]	–	–	% fibril formation [1]: 11.56 ± 0.72%; IC50 [2]: 3740 nM
Fluorescein isothiocyanate [FITC]	–	–	Interaction with TTR (change in FP signal upon addition of TTR) [7]: no interaction with TTR
